Assay results reported in publication PMC12248599, “Exploring the Bioavailability of Red Grape Skin Extract Polyphenols: A Caco-2 Cell Model Study” (Foods, 2025).
Several values for one entry are separate records, joined by “and”; a condition that tells them apart may be missing. Identical values can stand only once. Marks after values point to notes of the source that are not given here.

Experiments:
Caco-2 cell monolayer = test: Caco-2 monolayer transport (bioavailability) study, AB and BA directions; format: in vitro ADME, Homo sapiens; settings: for reduction in concentration on the apical (donor) side: 0 to 180 min; for TE (%) transport efficiency: after 180 min
Procedure: (§1) A reversed phase C18 column (Luna 5 μm C18(2) 100 Å, LC Column 250 × 4.6 mm, Phenomenex) was used to separate the polyphenols at a flow rate of 0.7 mL/min with an injection volume of 60 µL. The detection was carried out at 520 nm for anthocyanins (M3G, D3G and Pet3G), at 328 nm for CA, at 356 nm for flavonols (Q3G, K3Gal and K3G) and at 280 nm for GA and SA. The mobile phases were (A) acetonitrile 100% and (B) water 0.1% trifluoroacetic acid (v/v). The gradient was programmed as follows: 10% A 0 min, 10–80% A (0–20 min), 80–100% A (20–25 min), 100% A (25–30 min); 10% A (30–35 min) and 10% A (35–40 min). Every polyphenol was quantified using the corresponding reference standard calibration curve. Each of the quantified phenolic compound concentration was expressed as mg/mL
(§2) For the transport experiment Caco-2 cells were cultured at a density of 4 × 10^4 cells/cm^2 in Transwell inserts (12 mm i.d., 1.12 cm^2 growth area, 0.4 µm mean pore size polycarbonate membranes, Corning Inc., Milwaukee, WI, USA) placed in 12-well plates. Caco-2 cells were grown in DMEM in an incubator at 37 °C in a humidified atmosphere containing 5% CO2.
(§3) Bioavailability studies were performed in triplicate after 21 days of cell growth. Only inserts with stable TEER values higher than ≥300 Ω cm^2 were considered acceptable to perform the bioavailability study. For that purpose, DMEM media was removed, the monolayer was washed with PBS and HBSS was supplied to the cells.
(§4) Likewise, the GSE stock solution was diluted in HBSS medium to prepare GSE solutions S1 and S2. GSE solutions S1 and S2 had concentrations of 15 mg/mL and 22 mg/mL, respectively. These concentrations were established considering previous studies with grape pomace extracts that concluded that intestinal concentrations of 1–2% (w/v) show potential bioactivities and are safe to be used as a food ingredient.
(§5) The apical side represents the intestinal lumen and the basolateral side represents the bloodstream. Each sample (100 µL) was immediately acidified with 1M HCl to a final concentration of 0.007 M and subsequently frozen at −20 °C until analysis by HPLC (according to the method described in Section 2.5). Each experiment was carried out on 3 individual wells. The transport efficiency (TE) percentage was calculated according to Equation (2):Transport efficiency (%) = (C/C0) × 100(2) where, C is the polyphenol concentration at the acceptor side over time and C0 is the initial concentration at the donor side. TE values were calculated for the nine polyphenols identified in the grape skin extract.
(§6) The apparent permeability coefficient (Papp) of the polyphenols in GSE was calculated for apical to basolateral side (AB) and basolateral to apical side (BA) flux studies according to Equation (3):Papp (cm/s) = (dQ/dt) × (VR/AC0)(3) where, dQ/dt is the permeability rate which means the steady-state linear rate of change of concentration (mg/L) per second (s) at the acceptor side; A is the surface area of the cell monolayer (1.12 cm^2). C0 is the initial concentration at the donor side (mg/L) at t = 0 s and VR is the volume of the solution of the acceptor side (mL).
(§7) The efflux ratio (ER) of the polyphenol was assessed by calculating the Equation (4):ER = Papp (BA)/Papp (AB)(4) where, Papp (BA) is the apparent permeability coefficient of the polyphenol from basolateral to apical side and Papp (AB) is the apparent permeability coefficient from apical to basolateral side. ER is a measure of the relative contributions of active and passive transport to bi-direction flux across the cell monolayer.

[1] = as above; format: in vitro ADME, Homo sapiens; settings: human
Procedure: as §1, §2, §3, §4, §5, §6, §7

[2] = AB experiment, S1 (15 mg/mL GSE)
[3] = AB experiment, S2 (22 mg/mL GSE)
[4] = AB experiment, acceptor side, S1 (15 mg/mL GSE)
[5] = AB experiment, acceptor side, S2 (22 mg/mL GSE)
[6] = AB experiment, donor side, S1 (15 mg/mL GSE)
[7] = AB experiment, donor side, S2 (22 mg/mL GSE)
[8] = BA experiment, acceptor side, S1 (15 mg/mL GSE)
[9] = BA experiment, acceptor side, S2 (22 mg/mL GSE)
[10] = BA experiment, donor side, S1 (15 mg/mL GSE)
[11] = BA experiment, donor side, S2 (22 mg/mL GSE)

reduction in concentration on the apical (donor) side (Caco-2 cell monolayer; [2]): 33.6 ± 0.5% | TE (%) transport efficiency (Caco-2 cell monolayer; [2]): 97 ± 2% | reduction in concentration on the apical (donor) side (Caco-2 cell monolayer; [3]): 28.7 ± 0.9% | TE (%) transport efficiency (Caco-2 cell monolayer; [3]): 60 ± 1% and 60.2 ± 0.9% | Basolateral Side 75 min (Caco-2 cell monolayer; [4]): 6.2 ± 0.1 ^b mg/L | Basolateral Side 90 min (Caco-2 cell monolayer; [4]): 6.7 ± 0.1 ^c mg/L | Basolateral Side 115 min (Caco-2 cell monolayer; [4]): 7.1 ± 0.1 ^c mg/L | Basolateral Side 180 min (Caco-2 cell monolayer; [4]): 7.4 ± 0.1 ^c mg/L | Basolateral Side 75 min (Caco-2 cell monolayer; [5]): 6.4 ± 0.1 ^b mg/L | Basolateral Side 90 min (Caco-2 cell monolayer; [5]): 6.8 ± 0.2 ^c mg/L | Basolateral Side 115 min (Caco-2 cell monolayer; [5]): 7.2 ± 0.2 ^d,c mg/L | Basolateral Side 180 min (Caco-2 cell monolayer; [5]): 7.6 ± 0.2 ^c mg/L | Apical Side 0 min (Caco-2 cell monolayer; [6]): 7.7 ± 0.3 mg/L and 7.7 ± 0.3 ^a mg/L | Apical Side 75 min (Caco-2 cell monolayer; [6]): 7.1 ± 0.2 ^b mg/L | Apical Side 90 min (Caco-2 cell monolayer; [6]): 6.7 ± 0.2 ^b,c mg/L | Apical Side 115 min (Caco-2 cell monolayer; [6]): 6.4 ± 0.2 ^c mg/L | Apical Side 180 min (Caco-2 cell monolayer; [6]): 5.0 ± 0.2 mg/L and 5.1 ± 0.2 ^d mg/L | Apical Side 0 min (Caco-2 cell monolayer; [7]): 12.7 ± 0.3 mg/L and 12.7 ± 0.3 ^a mg/L | Apical Side 75 min (Caco-2 cell monolayer; [7]): 11.8 ± 0.3 ^b mg/L | Apical Side 90 min (Caco-2 cell monolayer; [7]): 11.3 ± 0.3 ^b,c mg/L | Apical Side 115 min (Caco-2 cell monolayer; [7]): 10.6 ± 0.23 ^c mg/L | Apical Side 180 min (Caco-2 cell monolayer; [7]): 9.0 ± 0.2 mg/L and 9.0 ± 0.2 ^d mg/L | detection at the acceptor side (Caco-2 cell monolayer; AB experiments, basolateral side): detected | TE (%) transport efficiency (Caco-2 cell monolayer; BA experiment, S1 (15 mg/mL GSE)): 130 ± 3% | TE (%) transport efficiency (Caco-2 cell monolayer; BA experiment, S2 (22 mg/mL GSE)): 109.0 ± 0.9% | Apical Side 75 min (Caco-2 cell monolayer; [8]): 6.1 ± 0.3 ^b mg/L | Apical Side 90 min (Caco-2 cell monolayer; [8]): 7.4 ± 0.3 ^c mg/L | Apical Side 115 min (Caco-2 cell monolayer; [8]): 8.7 ± 0.4 ^d mg/L | Apical Side 180 min (Caco-2 cell monolayer; [8]): 9.9 ± 0.4 ^c mg/L | Apical Side 75 min (Caco-2 cell monolayer; [9]): 6.8 ± 0.2 ^a,b mg/L | Apical Side 90 min (Caco-2 cell monolayer; [9]): 8.1 ± 0.2 ^b,c mg/L | Apical Side 115 min (Caco-2 cell monolayer; [9]): 9.4 ± 0.3 ^c,d mg/L | Apical Side 180 min (Caco-2 cell monolayer; [9]): 10.6 ± 0.3 ^c mg/L | Basolateral Side 0 min (Caco-2 cell monolayer; [10]): 7.6 ± 0.2 ^a mg/L | Basolateral Side 75 min (Caco-2 cell monolayer; [10]): 7.2 ± 0.2 ^b mg/L | Basolateral Side 90 min (Caco-2 cell monolayer; [10]): 6.9 ± 0.2 ^c mg/L | Basolateral Side 115 min (Caco-2 cell monolayer; [10]): 6.6 ± 0.1 ^d mg/L | Basolateral Side 180 min (Caco-2 cell monolayer; [10]): 6.1 ± 0.1 ^c mg/L | Basolateral Side 0 min (Caco-2 cell monolayer; [11]): 9.8 ± 0.2 ^a mg/L | Basolateral Side 75 min (Caco-2 cell monolayer; [11]): 9.5 ± 0.2 ^b mg/L | Basolateral Side 90 min (Caco-2 cell monolayer; [11]): 9.3 ± 0.2 ^c mg/L | Basolateral Side 115 min (Caco-2 cell monolayer; [11]): 9.1 ± 0.2 ^d mg/L | Basolateral Side 180 min (Caco-2 cell monolayer; [11]): 8.5 ± 0.2 ^c mg/L | detection at the acceptor side (Caco-2 cell monolayer; BA experiments, apical side): detected | efflux ratio at 180 min, 15 mg/mL ([1]; Caco-2, Papp (BA)/Papp (AB), S1 (15 mg/mL GSE), read-out: ER (efflux ratio)): 1.1 | efflux ratio at 180 min, 22 mg/mL ([1]; Caco-2, Papp (BA)/Papp (AB), S2 (22 mg/mL GSE), read-out: ER (efflux ratio)): 1.3 | efflux ratio at 180 min ([1]; Caco-2, text statement, S1 and S2): > 1 | Papp A→B at 180 min, 15 mg/mL ([1]; Caco-2, apical to basolateral, S1 (15 mg/mL GSE)): 11600 ± 200 nm/s | Papp A→B at 180 min, 22 mg/mL ([1]; Caco-2, apical to basolateral, S2 (22 mg/mL GSE)): 7300 ± 400 nm/s | Papp B→A at 180 min, 15 mg/mL ([1]; Caco-2, basolateral to apical, S1 (15 mg/mL GSE)): 12300 ± 300 nm/s | Papp B→A at 180 min, 22 mg/mL ([1]; Caco-2, basolateral to apical, S2 (22 mg/mL GSE)): 9700 ± 300 nm/s
SMILES: O=c1c(O[C@@H]2O[C@H](CO)[C@@H](O)[C@H](O)[C@H]2O)c(-c2ccc(O)cc2)oc2cc(O)cc(O)c12 [K3G, kaempferol-3-glucoside]
